Data taken from US8507674B2, “Quorum sensing inhibitor” (The University of Tokyo, priority 2007, dated 2013).

What was measured:
Burkholderia glumae [1] = test: Test Example 1: production of QS signal molecules C6-HSL and C8-HSL (TLC, CV026 violacein detection); type: cell-based
Procedure: Burkholderia glumae was inoculated into an LB culture medium (produced by BD) (Difco LB Broth: containing tryptone (10.0 g), yeast extract (5.0 g), and sodium chloride (10.0 g)), and cultured at 37° C. overnight. The thus-cultured broth was subjected to bacterial collection using a centrifuge, washed with an LB culture medium twice using a fresh LB culture medium each time. […] Each of the broths was filtered by a membrane filter (0.22 μm). 0.5 mL of ethyl acetate was added to 0.5 mL of supernate from which bacteria were removed, and then the quorum sensing (QS) signal molecules were extracted using ethyl acetate. The thus-obtained ethyl acetate layer was concentrated under reduced pressure, and the residue was re-dissolved in 20 μL of methanol, producing a test liquid.
The test liquid (1 μL) was spotted on TLC to separate C6-HSL and C8-HSL, which are QS signal molecules, under the condition of developing solvent: methanol/water=70/30. After the development, a TLC plate was well dried and a culture solution containing QS signal molecule detection bacteria (Chromobacterium violaceum CV026 strain) that had been pre-cultured in an LB culture medium and agar was applied to the TLC plate, followed by the detection of C6-HSL and C8-HSL. Chromobacterium violaceum is known as a bacterium that produces purple pigment (violacein) using the QS; therefore, the CV026 strain can be used to detect QS signal molecules (Microbiology, (1997), 143, 3703-3711, (2004), 54(4), 921-934, (2007), 64(1), 165-179). After applying the detected bacteria to the TLC plate, the TLC plate was subjected to overnight cultivation at 28° C. and then detection using violacein. For quantitative determination, calibration curves showing the violacein production from C6-HSL and C8-HSL that had been chemically synthesized were obtained. From the calibration curves, the production amounts of the QS signal molecules of each compound were obtained.

Burkholderia glumae [2] = test: Test Example 4: amount of toxoflavin produced in culture solution; type: cell-based; conditions: 0, 20, 40, 60, 80 or 100 μM, shake culturing 20 hours, FIG. 3
Procedure: (§1) Burkholderia glumae was inoculated into an LB culture medium, and cultured at 37° C. overnight. The thus-obtained culture solution was subjected to bacterial collection using a centrifuge, and washed with an LB culture medium twice using a fresh LB culture medium each time. To the bacterial cell a fresh LB culture medium was added, and then Compound (1) produced in Production Example 1 was added thereto in such a manner that its final concentration became a predetermined value (i.e., 0, 20, 40, 60, 80 or 100 μM), followed by shake culturing for 20 hours. The amount of toxoflavin produced by the bacterial cell in the culture solution was obtained by the following procedure.
Each culture solution was filtered by 0.22-μm membrane filter, and 1 mL of the filtrate was isolated. One mL of chloroform was added to the filtrate, followed by extraction. The thus-obtained chloroform layer was concentrated under reduced pressure, and an 80% (V/V) an aqueous methanol solution was added to and dissolved in the residue. The absorbance (at 260 nm) of the solution was measured, and the toxin doses were calculated from the calibration curve, which was obtained using a chemically synthesized standard toxin.

Burkholderia glumae [3] = test: Test Example 6: onset of infection on rice, test liquid sprayed after infection; type: in vivo; conditions: for percentage of flower clusters with score 0: score 0 = less than 0.1% diseased; for percentage of flower clusters with score 0 / percentage of flower clusters with score 1 / percentage of flower clusters with score 2 / percentage of flower clusters with score 3 / percentage of flower clusters with score 4 / percentage of flower clusters with score 5: rice, 7 days; for percentage of flower clusters with score 1: score 1 = 0.1-20% diseased; for percentage of flower clusters with score 2: score 2 = 20-40% diseased; for percentage of flower clusters with score 3: score 3 = 40-60% diseased; for percentage of flower clusters with score 4: score 4 = 60-80% diseased; for percentage of flower clusters with score 5: score 5 = 80-100% diseased
Procedure: A test liquid and a culture solution for infection were prepared in the same manner as in Test Example 5, and the culture solution for infection was sprayed onto Korean rice (Milyang 23) raised in a hothouse until the flowering stage. One hour after the spraying, each test liquid (10 mL) was sprayed onto the rice. After cultivation for seven days, the onset of Burkholderia glumae infection on the rice was evaluated in the same manner as in Test Example 4. The same evaluation was conducted as the comparative test in the same manner except that water was used instead of the test liquid. Further, the same evaluation was conducted to serve as a blank using water instead of both the test liquid and the culture solution for infection.

Burkholderia glumae [4] = test: Test Example 9: amount of toxoflavin produced in culture solution, with comparative compound; type: cell-based; conditions: 0, 20, 40, 60, 80 or 100 μM, shake culturing 20 hours, FIG. 6
Procedure: as §1, with “medium (produced by BD (Difco LB Broth: containing tryptone (10.0 g), yeast extract (5.0 g), and sodium chloride (10.0 g)),” for “medium,”
Each culture solution was filtered by a 0.22-μm membrane filter, and 1 mL of the filtrate was isolated. One mL of chloroform was added to the filtrate, followed by extraction. The thus-obtained chloroform layer was concentrated under reduced pressure, and an 80% (V/V) an aqueous methanol solution was added to and dissolved in the residue. The absorbance (at 260 nm) of the solution was measured, and the toxin doses were calculated from the calibration curve, which was obtained using chemically synthesized standard toxin. […]

[5] = 40 μM compound, 12 hours shake culturing
[6] = 40 μM compound, 24 hours shake culturing
[7] = 60 μM compound, 12 hours shake culturing
[8] = 60 μM compound, 24 hours shake culturing
[9] = 50 μM sprayed 1 h after infection
[10] = 100 μM sprayed 1 h after infection
[11] = 200 μM sprayed 1 h after infection

CCCc1cc(=O)n2cccc(O)c2n1 [Compound (1), 2-n-propyl-9-hydroxy-4H-pyrid[1,2-a]pyrimidin-4-one]
C6-HSL (Burkholderia glumae [1]; [5]): 163 ng/mL
C8-HSL (Burkholderia glumae [1]; [5]): 14 µg/mL
C6-HSL (Burkholderia glumae [1]; [6]): 0 ng/mL
C8-HSL (Burkholderia glumae [1]; [6]): 0 µg/mL
C6-HSL (Burkholderia glumae [1]; [7]): 167 ng/mL
C8-HSL (Burkholderia glumae [1]; [7]): 13 µg/mL
C6-HSL (Burkholderia glumae [1]; [8]): 0 ng/mL
C8-HSL (Burkholderia glumae [1]; [8]): 0 µg/mL
toxin doses produced by bacteria (toxoflavin) (Burkholderia glumae [2]): remarkably decreased
percentage of flower clusters with score 0 (Burkholderia glumae [3]; [9]): 88%
percentage of flower clusters with score 0 (Burkholderia glumae [3]; [10]): 85%
percentage of flower clusters with score 0 (Burkholderia glumae [3]; [11]): 89%
percentage of flower clusters with score 1 (Burkholderia glumae [3]; [9]): 2%
percentage of flower clusters with score 1 (Burkholderia glumae [3]; [10]): 5%
percentage of flower clusters with score 1 (Burkholderia glumae [3]; [11]): 3%
percentage of flower clusters with score 2 (Burkholderia glumae [3]; [9]): 4%
percentage of flower clusters with score 2 (Burkholderia glumae [3]; [10]): 3%
percentage of flower clusters with score 2 (Burkholderia glumae [3]; [11]): 3%
percentage of flower clusters with score 3 (Burkholderia glumae [3]; [9]): 2%
percentage of flower clusters with score 3 (Burkholderia glumae [3]; [10]): 3%
percentage of flower clusters with score 3 (Burkholderia glumae [3]; [11]): 2%
percentage of flower clusters with score 4 (Burkholderia glumae [3]; [9]): 2%
percentage of flower clusters with score 4 (Burkholderia glumae [3]; [10]): 2%
percentage of flower clusters with score 4 (Burkholderia glumae [3]; [11]): 2%
percentage of flower clusters with score 5 (Burkholderia glumae [3]; [9]): 2%
percentage of flower clusters with score 5 (Burkholderia glumae [3]; [10]): 2%
percentage of flower clusters with score 5 (Burkholderia glumae [3]; [11]): 1%
onset of Burkholderia glumae on rice (Burkholderia glumae [3]; test liquid 50, 100 or 200 μM sprayed after the culture solution for infection): prevented
toxin doses produced by bacteria (toxoflavin) (Burkholderia glumae [4]): remarkably decreased
